The source of these data is US6610535B1, “Progenitor cells and methods and uses related thereto” (ES Cell International Pte Ltd., priority 2000, dated 2003).

Holding throughout (assay type): cell-based, rat
One assay deals with NACs. Put plainly: Calcium imaging (Fluo-3) of glucose-induced calcium current in NACs. The conditions noted are these: Fluo-3, confocal microscopy. On the procedure:
Cells were then washed to remove excess dye and placed onto a heated microscope stage (Olympus) and maintained at 32° C. Fluo-3 fluorescence intensity was used as an indicator of intracellular calcium concentration and was measured with a confocal laser-scanning microscope (Olympus). The excitation wavelength was set to 488 nm (argon ion laser) and a 40×water lens was used. The same parameters for laser scanning were set for each experiment, including confocal aperture and laser intensity. The laser scanning was performed as an XYT series with an interval of 10 seconds between each scan in order to resolve glucose-induced changes in intracellular calcium. The imaging files were stored and subsequently analyzed with FLUOVIEW software (Olympus). Cells of interest were circled and the mean intensity of the circled areas was plotted over time.

The subject of another assay is duct monolayer. Briefly: Induction of non-adherent cells (NACs, floating progenitor cells) from confluent pancreatic duct monolayer culture.
The next assay deals with duct cultures. Put plainly: Immunostaining for insulin in duct cultures. The conditions noted are these: FIG. 12; 48 hours in varying secretin doses.
The subject of the next assay is duct spheres. Briefly: Duct sphere differentiation after growth with added factors, immunohistochemistry. The conditions noted are these: LIF in growth culture medium in addition to six growth factors. How it is done:
Ducts are dissociated into single cells by the dissociation enzyme cocktail containing 1.33 mg/ml Trypsin, 0.7 mg/ml Hyaluronidase, 0.2 mg/ml Kynerenic Acid, and 200 U/ml DNase and plated into sphere culture media (culture media containing 10 ng/ml bFGF, 20 ng/ml EGF, 40 ng/ml HGF, 8 ng/ml TGF α, 30 ng/ml IGF-I and IGF-II, 2% B27 supplements (Gibco/BRL), 8 mM HEMES, 2 mM Glutamine, 100 U/ml penicillin and 100 ug/ml streptomycin in DMEM-F12 medium). After two days in culture, the primary spheres were taken onto HTB-9 matrix in the differentiation media (5% FBS in Iscove Media containing 200 ng/ml PYY and 30 uM Forskolin) for 4 days differentiation. The cells are fixed by 1% PFA followed by IHC analysis.

[1] abbreviates: factor added to day 5 duct monolayer, 48 hours.

Entries after “also recorded” stand apart in the source; their conditions may differ. Like-named read-outs stand apart in the source and are kept apart here. Where no end group is shown, it is not given here. Some results are limits rather than exact numbers.

In the case of `O=C(O)CN(CCOCCOCCN(CC(=O)O)CC(=O)O)CC(=O)O` [EGTA], in the assay on NACs, the “effect on calcium current in NACs” value is on record as “inhibited”.
On to “EGF: epidermal growth factor (NSDSECPLSHDGYCLHDGVCMYIEALDKYACNCVVGYIGERCQYRDLKWWELR; UniProt P01133 971-1023, looked up)”, for which the “effect on NAC / floating progenitor cell generation” value with duct monolayer (setting [1]) was “neither dexamethasone nor EGF alone had significant effects”.
Consider secretin: secretin, for which the “induction of differentiation of duct monolayer” value in the assay on duct monolayer (duct monolayer culture) was “can induce differentiation”. In the assay with duct monolayer (setting [1]), the “effect on NAC / floating progenitor cell generation” value was “dose dependent increase”. Moreover, in the assay on duct cultures, the “number of insulin positive cells in the monolayer” value is on record as “increases with secretin dose”.
Consider forskolin [reference compound], for which, in the assay with duct monolayer, the “effect on NAC / floating progenitor cell generation” value is on record as “can substitute for DCE” and the “induction of differentiation of duct monolayer” value is listed as “found to induce differentiation”.
As for TGFβ1: growth factor TGFβ1, the “effect on NAC / floating progenitor cell generation” value with duct monolayer (setting [1]) is “only slight effects”.
For the compound LIF: leukemia inhibitory factor, in the assay on duct spheres, the “insulin positive cells upon differentiation” value is given as “many fewer” and the “relative amount of Somatostatin positive cells upon differentiation” value was “greatly increased”.
As for “VIP: Vasoactive Intestinal Peptide (HSDAVFTDNYTRLRKQMAVKKYLNSILN-NH2; ends and bridges not checked; UniProt P01282 125-152, looked up)”, the “increase in number of floating progenitor cells versus control” value in the assay on duct monolayer (FIG. 13, 50 ng/ml, 48 hours, control 5% FCS) is reported as above 3 fold. Further, the “optimal dosage for induction of floating progenitor cells” value in the assay on duct monolayer (FIG. 13, 48 hours of treatment) amounted to 50 ng/mL. Also, the “effect on NAC / floating progenitor cell generation” value in the assay with duct monolayer (setting [1]) is reported as “inducing the appearance of floating progenitor cells”.
Consider `O=CC[C@@H](O)[C@H](O)[C@H](O)CO` [2-deoxyglucose], for which the “effect on calcium current in NACs” value in the assay with NACs is “not induced”.
On to `CCCC(=O)Nc1ncnc2c1ncn2[C@@H]1O[C@@H]2COP(=O)(O)O[C@H]2[C@H]1OC(=O)CCC` [Dibutyrl cAMP, dibutyryl-cAMP, reference compound], for which, in the assay on duct monolayer (duct monolayer culture), the “induction of differentiation of duct monolayer” value is reported as “found to induce differentiation”. The “effect on NAC / floating progenitor cell generation” value with duct monolayer (setting [1]) is “can substitute for DCE”.
Regarding Cholera toxin [reference compound], in the assay on duct monolayer, the “effect on NAC / floating progenitor cell generation” value is “majority of the activity” and the “induction of differentiation of duct monolayer” value is “found to induce differentiation”.
For HGF: hepatocyte growth factor, the “effect on NAC / floating progenitor cell generation” value in the assay with duct monolayer (setting [1]) is given as “only slight effects”.
Take `CCCCNC(=O)NS(=O)(=O)c1ccc(C)cc1` [tolbutamide]: in the assay with NACs, the “effect on calcium current in NACs” value was “activated; also recorded: stimulated a calcium current”.
With `CC1=NS(=O)(=O)c2cc(Cl)ccc2N1` [diazoxide], the “effect on calcium current in NACs” value in the assay with NACs is given as “completely inhibited”.
As to `CCCC(=O)[O-].[Na+]` [Na-Butyrate, sodium butyrate, reference compound], in the assay on duct monolayer, the “effect on NAC / floating progenitor cell generation” value was “can substitute for DCE” and the “induction of differentiation of duct monolayer” value is “found to induce differentiation”.
For the compound “insulin: hormone insulin added to culture”, the “effect on secretin-induced induction of floating progenitor cells” value in the assay on duct monolayer (FIG. 14, insulin 10 ng/ml added simultaneously with secretin 100 nM) is recorded as “diminished”.
